Results published in patent US11453640B2, “Small molecules for disrupting the super elongation complex and inhibiting transcription elongation for cancer therapy” (NORTHWESTERN UNIVERSITY, priority 2018, dated 2022).

Key:
[1] = molecular target: T1, AFF4-CCNT1 interaction (GST-CCNT1 AA 1-300 and biotin-AFF4 peptide AA 32-67) (Homo sapiens, UniProt O60563); test: AlphaLISA assay of the AFF4-CCNT1 interaction (Alpha Screen); format: binding
T1 construct: Recombinant GST-CCNT1 (1-300), which was purified by Glutathione Superflow Agarose from Rosetta cells; VCPBIO (peptide synthesis) Addgene P#432; host or cells: Rosetta cells
T1 sequence (O60563 1-300): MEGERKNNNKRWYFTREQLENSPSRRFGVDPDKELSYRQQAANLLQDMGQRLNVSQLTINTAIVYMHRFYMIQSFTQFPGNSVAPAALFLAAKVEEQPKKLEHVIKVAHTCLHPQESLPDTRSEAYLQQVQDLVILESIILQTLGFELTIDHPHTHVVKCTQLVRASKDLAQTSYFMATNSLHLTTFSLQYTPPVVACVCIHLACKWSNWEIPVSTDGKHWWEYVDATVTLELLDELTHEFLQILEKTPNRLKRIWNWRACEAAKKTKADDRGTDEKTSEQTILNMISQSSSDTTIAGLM
Description: FIG. 1. Peptidomimetic identification of disruptors of the AFF4-CCNT1 interaction within the Super Elongation Complex. (A) Schematic for the identification of small molecule inhibitors of the AFF4-CCNT1 interaction using in silico high-throughput screening. Compounds from the ZINC database were docked with the AFF4-CCNT1 structure (4IMY) using a three-tier glide-docking algorithm, which led to 40 candidates. Residues forming the deep binding pocket of CCNT1 are labeled orange and residues of the AFF4 peptide are labeled red. (B) Validation screening identified KL-1 as a potential SEC disruptor using AlphaLISA screening. GST-CCNT1 (AA 1-300) and biotin-labeled AFF4 peptide (AA 32-67) were used to measure the AFF4-CCNT1 interaction with the AlphaLISA assay. (C) Similarity search for KL-1-like molecules identified KL-2. The peptidomimetic potential of KL-1 and KL-2 can be seen by overlaying them with the AFF4 peptide LFAEP structure. (D) Dose-dependent inhibition of KL-1 and KL-2 on AFF4-CCNT1 interaction. The Ki constants of both compounds were measured with the AlphaLISA assays. (E) Treatment of HEK293T cells with KL-1 and KL-2 results in reduced protein levels of SEC components AFF1 and AFF4 but not CDK9 or CCNT1. HEK293T cells were treated with 20 μM of SEC inhibitors KL-1 or KL-2 for 6 hr. 5 μl, 10 and 20 μl cell lysates were loaded and the protein levels of AFF1, AFF4, CCNT1, CDK9 and Tubulin (load control) were determined by western blotting.
FIG. 8, related to FIG. 1. Peptidomimetic identification of disruptors of the AFF4-CCNT1 interaction within the Super Elongation Complex. (A) Schematic of AlphaLISA assay of the AFF4-CCNT1 interaction. Anti-GST AlphaLISA acceptor beads and AlphaScreen streptavidin donor beads (Perkin Elmer) were used to detect the interaction of GST-CCNT1 (AA1-300) and biotin-AFF4 (AA32-67). (B-C) Optimization of the AlphaLISA assay with various biotin-AFF4 peptide and GST-CCNT1 concentrations. No CCNT1 (B) and mutant AFF4 (C) were used as negative controls. Data are represented as Mean+/−SD. (D) Scheme for chemical synthesis of SEC inhibitors KL-1 and KL-2. Reagents and conditions: a. LDA, THF, −78° C., 15 min., then diethyl oxalate, −78° C. to room temperature. b. NaOH, THF/H2O, room temperature, 15 min. c. EEDQ, 5-chloro-2-methylaniline, THF, room temperature, 24 hr. […] 293T cells were treated with 20 μM of KL-1 or KL-2 for 6 hr, and the protein levels of BRD2, BRD4, Pol II (RPB1), SPT5, MED26, MYC, HSP90 (load control) and Tubulin (load control) were measured by western blotting. (F) Treatment of HCT-116 cells with KL-1 and KL-2 reduced protein levels of SEC components AFF1 and AFF4 but not CDK9 or CCNT1. HCT-116 cells were treated with 20 μM of KL-1 or KL-2 for 6 hr, and the protein levels of AFF1, AFF4, CCNT1, CDK9 and Tubulin (load control) were determined by western blotting. (G-H) Treating cells with KL-1 and KL-2 results in reduced levels of AFF 1 and AFF4. FLAG-AFF1 (G) and FLAG-AFF4 (H) were expressed under the Tet-inducible promoter in HEK293T cells. Cells were treated with 20 μM of the indicated inhibitors for 6 hr for western blotting. […] RNA-seq was performed in HEK293T cells treated for 12 hr with 20 μM of the indicated inhibitors. The log2CPM (counts per million) of the SEC subunits were calculated with HTseq. KL-1 and KL-2 had no significant effects on CCNT1, CDK9 and AFF1 expression, but modest increases in the mRNA levels of AFF4 and ELL2 were observed (n=3). Unpaired two-way ANOVA was used for the statistical testes. **,p<0.05, ***,p<0.001.
To test if candidate compounds can disrupt the AFF4-CCNT1 interaction in vitro, we established and optimized a bead-based AlphaLISA assay with recombinant CCNT1 (1-300) protein and synthesized Biotin-AFF4 peptides (AA 32-67) (FIGS. 8A, 8B and 8C).
AlphaLISA Assay. The interaction of CCNT1-AFF4 was measured by Perkin Elmer's bead-based AlphaLISA assays. […]

H2171 and SW1271 cells = test: CellTiter-Glo cell proliferation of small cell lung cancer cells; format: cell-based, human; conditions: 3 days, increasing concentrations
Description: FIG. 6. SEC disruption targets MYC and MYC target genes. (A-B) Venn diagram of deregulated genes in 293T cells by KL-1 and KL-2. […] (C) Heat map showing the expression changes in response to SEC inhibitors, with differentially expressed canonical MYC targets, RNA splicing factors, and core SNRP assembly genes highlighted. […] Each cluster is represented by different colors and a circle node denotes each enriched term. (E) MA plots of RNA splicing and Hallmark MYC target genes in KL-2 treated, AFF1 and AFF4 co-depletion, and ELL2-depleted cells. […] The MYC genes, the PRMT5 gene, and genes encoding SEC components are denoted as red squares. (F) Western analysis of MYC protein levels in the MYC lowly expressed small cell lung cancer cell line […] and MYC-amplified small cell lung cancer cell line H2171. (G) Gained SEC occupancy at the MYC binding sites in MYC highly expressed H2171 cells. Genome browser tracks of MYC and SEC occupancy around the PRMT5 gene in SW1271 and H2171 cells are shown. (H) ChIP-seq analysis of MYC binding peaks in SW1271 and H2171 cells. […] The SEC and MYC peaks were determined by MACS with a p-value cutoff at 1E-5. […] Both cell lines were treated with increasing concentrations of KL-1 and KL-2 for 3 days and the cell proliferation was measured with CellTiter-Glo luminescent cell viability assay (Promega) (n=3-6).

## COc1cccc(C(=O)CC(=O)C(=O)Nc2cc(Cl)ccc2C)c1 [KL-1, N-(5-chloro-2-methylphenyl)-4-oxo-4-(3-methoxyphenyl)-2-oxobutanamide]
[1]; AlphaLISA, IC50 converted to Ki with the Cheng and Prusoff equation, read-out: Ki, inhibition of the AFF4-CCNT1 interaction
  Ki: 3.48 µM
[1]; tested at 20 μM
  disruption of the AFF4-CCNT1 interaction: could inhibit the interaction of AFF4-CCNT1
H2171 and SW1271 cells
  sensitivity of high MYC expressing H2171 cells versus low MYC expressing SW1271 cells: more sensitive
